Reference: article PMC12040169 (PLOS Biology, 2025)

Experiment: in vitro
Settings: human, hela cells, % viability

Structure (SMILES) | viability at 28.5 h, 10 µM [%]
O=C(NCCN1CCOCC1)c1cc(-n2cnnc2)ccc1Cl [CBK268023] | 97.1
CC(=O)Nc1c(O)nc(SCC(=O)Nc2ccccc2C(N)=O)[nH]c1=O [CBK268031] | 97.8
Cc1ccc(OCCCC(=O)Nc2ccc(C(N)=O)cc2)c(C)c1 [CBK268032] | 93.8
CC(c1ccccc1)N1CCn2c(nc3cc(NC(=O)COc4ccccc4)ccc32)C1 (stereo not shown) [CBK268033] | 105
O=C(CC1Nc2cccc3cccc(c23)NC1=O)Nc1ccccc1 (stereo not shown) [CBK268035] | 87.2
Cc1nn2c(CN(C(=O)COc3ccccc3)c3ccccc3)nnc2c2ccccc12 [CBK268036] | 83.4
O=C(OCc1ccc(Sc2ccc([N+](=O)[O-])cc2Cl)cc1)c1cnccn1 [CBK268037] | 93.4
O=C(NCCN1CCN(Cc2ccccc2Cl)CC1)Nc1ccccc1 [CBK268039] | 93.4
CC1CCN(S(=O)(=O)c2ccc(NC(=O)CCn3c(=O)oc4ccccc43)cc2)CC1 [CBK268040] | 97.1
CCOc1ccccc1CNCc1ccccn1 [CBK268041C] | 103
CC(=O)C1=C(C)N(CC2CCCO2)C(=O)C1(NC(=O)c1ccc(C(C)(C)C)cc1)C(F)(F)F (stereo not shown) [CBK268043] | 93.2
O=c1c2c([nH]c3nc(NCc4ccc(OCc5ccccc5)cc4)nn13)CCC2 [CBK268044] | 96.9
Cc1ccc(CSCCNS(=O)(=O)c2ccc3ccccc3c2)cc1 [CBK268048] | 107
CCc1ccc(OC(C)c2nnc(SCC(=O)N3c4ccccc4Sc4ccccc43)n2C)cc1 (stereo not shown) [CBK268058] | 92.3
O=C(CSCc1ccc(Br)cc1)N1CCN(Cc2ccc3c(c2)OCO3)CC1 [CBK268059] | 89.7
O=C(O)c1cccc(CSc2nnc(Cc3ccccc3)o2)c1 [CBK268060] | 92
Cc1ccc(SCc2ccc(C(=O)NCc3cccnc3)cc2)cc1 [CBK268063] | 96.9
COC(=O)c1ccc(NC(=O)CNc2ccccc2)cc1 [CBK268064] | 110
O=C(O)CSc1nc(O)c2c(-c3ccccc3)csc2n1 [CBK268067] | 107
CSc1nsc(SCC(=O)N2CCN(C(c3ccccc3)c3ccccc3)CC2)n1 [CBK268071] | 89.2
N#CCCn1cc(C(=O)n2nnc3ccccc32)c(-c2cc3ccccc3o2)n1 [CBK268073] | 103
CCOc1ccccc1NC(=O)CSc1nc(N)cc(O)n1 [CBK268075] | 107

Structure (SMILES) | viability at 28.5 h, 10 µM [%]
O=C(CSc1nc(O)c2c(-c3ccccc3)csc2n1)NCCc1ccccc1 [CBK268077] | 97.2
CCOC(=O)c1c[nH]c2nc(COc3ccccc3)nn2c1=O [CBK268088] | 107
COc1ccc(S(=O)(=O)N(C)CC(=O)NCc2cccnc2)cc1Cl [CBK268089] | 108
CCOc1ccc(CNCCc2ccc(S(N)(=O)=O)cc2)cc1 [CBK268090C] | 94.6
CCN1CCN(C(=O)CN(C)S(=O)(=O)c2ccc(OC)c(Cl)c2)CC1 [CBK268091] | 93.2
Cn1nnnc1SCc1nc(N)nc(Nc2ccccc2)n1 [CBK268092] | 98.7
COc1ccc2nc(O)c(CN(c3ccccc3)S(=O)(=O)c3ccccc3)cc2c1 [CBK268093] | 97.7
COc1ccc(NC(=O)c2ccc(N(C)Cc3ccccc3)c([N+](=O)[O-])c2)cc1 [CBK268094] | 86.4
O=C(COc1ccc(N2CC(C(=O)O)CC2=O)cc1)Nc1cccc(C(F)(F)F)c1 (stereo not shown) [CBK268096] | 100
CCn1c(C)c(/C=C/c2nc3ccccc3c(=O)n2CCCO)c2ccccc21 [CBK268099] | 95.7
CC12CN(S(=O)(=O)c3ccccc3)CC(c3ccccc3)(CN(S(=O)(=O)c3ccccc3)C1)C2=O [CBK268101] | 97
CC(C)NS(=O)(=O)c1ccc(NC(=O)Cc2cccc3ccccc23)cc1 [CBK268102] | 94.8
CCn1c(COc2c(C)cccc2C)nnc1SCC(=O)N1c2ccccc2Sc2ccccc21 [CBK268103] | 96.4
CCOc1c(CNCc2ccccn2)cccc1OC [CBK268104C] | 96.9
CCOC(=O)c1ccc(N2CC(C(=O)O)CC2=O)cc1 (stereo not shown) [CBK268106] | 115
Cc1scc(C(=O)NCc2ccccn2)c1-c1ccccc1 [CBK268107] | 89
Cc1cc(C(=O)NCc2ccc(C(=O)O)cc2)no1 [CBK268108] | 98.3
Cc1ccc(OC(C)C(=O)NCCCN2CCOCC2)cc1C (stereo not shown) [CBK268109] | 94.3
Cc1noc(C)c1C(=O)Nc1sc2c(c1C(=O)NCc1ccco1)CCCCCC2 [CBK268112] | 99.3
Cc1cc(OCC(=O)Nc2nn(Cc3ccccc3Cl)cc2Cl)ccc1[N+](=O)[O-] [CBK268113] | 100
Cc1cc(OCC(=O)Nc2ccc(S(=O)(=O)N3CCOCC3)cc2)ccc1[N+](=O)[O-] [CBK268114] | 113
CN1CCN(NC(=O)COc2ccc(-c3ccccc3)cc2)CC1 [CBK268117] | 89.8

Structure (SMILES) | viability at 28.5 h, 10 µM [%]
CCc1noc(C)c1C(=O)NCCN(C)C [CBK268118] | 97.5
COC(=O)c1c(-c2ccncc2)csc1NC(=O)Cc1ccc([N+](=O)[O-])cc1 [CBK268119] | 90.1
O=C(O)C1CC=CCC1C(=O)Nc1ccc(S(=O)(=O)N2CCc3ccccc32)cc1 (stereo not shown) [CBK268122] | 108
O=C(Nc1cccc(Cn2cccn2)c1)c1csc2ccccc12 [CBK268123] | 93.2
CN1CCN(NC(=O)COc2cccc(C(F)(F)F)c2)CC1 [CBK268124] | 90.2
Cc1cc(C(=O)N2CCN(Cc3ccc(F)cc3Cl)CC2)no1 [CBK268126] | 100
CCc1noc(C)c1C(=O)Nc1cccc(Cn2cc(Cl)cn2)c1 [CBK268127] | 97.6
NS(=O)(=O)c1ccc(CCNC(=O)c2ccc3c(c2)OCCO3)cc1 [CBK268128] | 104
NS(=O)(=O)c1ccc(NC(=S)N2CCN(CCc3ccccc3)CC2)cc1 [CBK268133] | 97.6
Cc1cc(C(=O)Nc2sc(C)c(C)c2C(=O)NCc2cccnc2)no1 [CBK268134] | 100
CCC(Oc1cccc(Cl)c1)C(=O)NN1CCN(C)CC1 (stereo not shown) [CBK268135] | 116
CC(Oc1ccc(Br)cc1Cl)C(=O)NCCCN1CCCC1=O (stereo not shown) [CBK268138] | 98.7
Cc1cc(NS(=O)(=O)c2ccc(NC(=O)Nc3ccc4c(c3)OCO4)cc2)no1 [CBK268139] | 104
Cc1ccc(-c2csc(NC(=O)c3c(C)noc3C)c2C(=O)NC2CC2)cc1 [CBK268141] | 95.1
CN1CCN(NC(=O)CSc2ccccc2)CC1 [CBK268142] | 107
COc1ccccc1CCNC(=O)c1cnccn1 [CBK268147] | 59.7
CCOc1ccc(CC(=O)NN2CCOCC2)cc1OCC [CBK268150] | 102
COc1cc(NS(=O)(=O)c2ccc(NC(=O)c3c(C)noc3C)cc2)nc(OC)n1 [CBK268151] | 103
O=C(Nc1nn(Cc2c(F)cccc2Cl)cc1Cl)c1cccnc1 [CBK268154] | 79.1
NS(=O)(=O)c1ccc(CCNC(=O)c2cccnc2)cc1 [CBK268158] | 102
